Measurements reported in PubChem BioAssay (NCI).
Where “and” joins values, the source holds several entries; their conditions need not be identical. Equal entries are not always repeated.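 Five concentrations, 48 hours, 96-well plates. Here, GI50 denotes the concentration required for 50% inhibition of growth. Definition used: TGI = concentration required for complete inhibition of growth.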

Columns and labels:
Assay in all cases: DTP human tumour cell line panel, 48 h
MDA-MB-231 breast = system: MDA-MB-231 breast
T-47D breast = system: T-47D breast
M14 melanoma = system: M14 melanoma
OVCAR-4 ovarian = system: OVCAR-4 ovarian
SF-268 CNS = system: SF-268 CNS
HCT-116 colon = system: HCT-116 colon
UACC-62 melanoma = system: UACC-62 melanoma
HS 578T breast = system: HS 578T breast
EKVX NSCLC = system: EKVX NSCLC
SNB-19 CNS = system: SNB-19 CNS

| Structure (SMILES) | TGI (MDA-MB-231 breast) [µM] | TGI (T-47D breast) | TGI (M14 melanoma) [µM] | TGI (OVCAR-4 ovarian) | TGI (SF-268 CNS) [µM] | TGI (HCT-116 colon) | TGI (UACC-62 melanoma) [µM] | TGI (HS 578T breast) | TGI (EKVX NSCLC) | TGI (SNB-19 CNS) | GI50 (MDA-MB-231 breast) [µM] | GI50 (T-47D breast) [µM] | GI50 (M14 melanoma) [µM] | GI50 (OVCAR-4 ovarian) [µM] | GI50 (SF-268 CNS) [µM] | GI50 (HCT-116 colon) [µM] | GI50 (UACC-62 melanoma) [µM] | GI50 (HS 578T breast) [µM] | GI50 (EKVX NSCLC) [µM] | GI50 (SNB-19 CNS) [µM] |
| --- | --- | --- | --- | --- | --- | --- | --- | --- | --- | --- | --- | --- | --- | --- | --- | --- | --- | --- | --- | --- |
| CCCC(=O)Nc1cc([N+](=O)[O-])c([N+](=O)[O-])cc1OC | 38.9 | 19.4 µM | 25.6 | 33.6 µM | 34.6 | 32.3 µM | 33.7 | 46.5 µM | 31.8 µM | 30.7 µM | – | – | – | – | – | – | – | – | – | – |
| CC(C)(C)c1cn2cccc(C(=O)N3CCN(CC(=O)Nc4ccc(Cl)cc4C(=O)c4ccccc4Cl)CC3)c2n1 | 34.5 | > 100 µM | 33.2 | > 100 µM | 43.6 | 25.7 µM | 26 | 19.9 µM | 66.7 µM | 54.8 µM | 13.1 | 5.33 | 15.4 | 7.9 | 13 | 10.3 | 10.7 | 4.72 | 5.79 | 15.3 |
| O=C(Nc1cccc([N+](=O)[O-])c1)c1ccc2ccccc2c1O | > 81.9 | > 30.4 µM | > 100 | > 100 µM | > 100 | > 100 µM | > 100 | > 28.4 µM | > 57.2 µM | > 85.4 µM | 22.2 | 2.64 | 6.81 | 4.95 | 7.72 | 5.27 | 4.22 | 2.91 | 2.9 | 4.05 |
| COc1cc(OC)c2cc(C(=O)O)c(=O)oc2c1 | > 100 | > 100 µM | > 100 | > 100 µM | > 100 | > 100 µM | > 100 | > 51.4 µM | > 100 µM | > 100 µM | > 100 | > 100 | > 100 | > 100 | > 100 | > 100 | > 71.8 | – | > 100 | > 100 |
| CO/N=C(\COc1ccc2c(c1)oc(=O)c1cc(OC)ccc12)c1ccc(F)cc1 | 42.8 | 90.3 µM | 45.7 | 58.3 µM | > 100 | 41.2 µM | 73.9 | > 100 µM | > 100 µM | > 100 µM | 15.8 | 25 | 17.8 | 21.2 | 29.9 | 14.9 | 21.5 | 29.9 | 35.2 | 30.4 |
| COc1ccc2cc3[n+](cc2c1OC)CCc1cc2c(cc1-3)OCO2 | > 100 | 29.5 µM and 42.2 µM and > 68 µM | – | 93.7 µM and > 100 µM and 62 µM | – | > 100 µM and > 76.7 µM and 79.8 µM | – | > 100 µM and 87.1 µM and 40.7 µM | > 100 µM and 175 µM | > 100 µM and > 77.2 µM and 145 µM | 15.9 | 1.88 | 16.9 | – | 4.68 | – | 7.24 | – | – | 0.831 |
| COc1cc(/C=C/C(=O)C(C(=O)/C=C/c2ccc(OC(=O)CCNc3nnc(C)s3)c(OC)c2)C(=O)CCNc2nnc(C)s2)ccc1OC(=O)CCNc1nnc(C)s1 | 7.4 | > 47.5 µM | 11 | > 61.5 µM | 11.2 | 3.81 µM | 3.57 | 9.7 µM | 14.8 µM | 18.3 µM | 2.23 | 4.14 | 3.11 | 4.76 | 2.64 | 1.65 | 1.73 | 2.77 | 3.8 | 4.79 |
| CC1CC(C)/C(=N/NC(N)=O)C(C(O)CC2CCC(=O)NC2=O)C1 (stereo not drawn) | 88.9 | > 100 µM | > 100 | > 100 µM | 45.1 | > 100 µM | > 100 | 8.25 µM | 22.6 µM | > 100 µM | 8.4 | 4.41 | 3.64 | 5.64 | 2.98 | 3.04 | 2.79 | 1.34 | 2.3 | 3.73 |
| CC(C)=CC(O)C/C(C)=C/CC/C(C)=C/CCC1(C)C(CCCO)/C(=C(/C)C=O)CCC1(C)O (stereo not drawn) | 74.1 | > 100 µM | 60.9 | > 100 µM | > 100 | > 100 µM | > 100 | > 100 µM | > 100 µM | > 100 µM | – | – | – | – | – | – | – | – | – | – |
| O=C(Nc1ccc(Cl)cc1)c1ccc([N+](=O)[O-])o1 | 47.2 | 23.2 µM | 4.28 | 8.31 µM | 11.8 | 3.11 µM | 3.1 | 18.6 µM | 12.5 µM | 10.6 µM | 6.79 | 4.42 | 1.99 | 2.11 | 2.98 | 1.39 | 1.46 | 2.81 | 3.02 | 2.6 |
| COc1cc(C2CC(c3ccc(Nc4ccnc5cc(Cl)ccc45)cc3)=NN2C=O)cc(OC)c1OC (stereo not drawn) | 54 | 7.4 µM | 13.9 | 13.3 µM | > 100 | 9.61 µM | 6.87 | 27.7 µM | > 100 µM | > 100 µM | 4.39 | 2.33 | 3.75 | 3.19 | 28 | 3.21 | 2.2 | 3.24 | 11.7 | 18.2 |
| Cc1nc(N)sc1N=Nc1cc(Cl)c([N+](=O)[O-])cc1Cl | 45.9 | > 100 µM | > 100 | – | 88.5 | > 100 µM | 36.1 | 95.9 µM | 37.7 µM | > 100 µM | – | – | – | – | – | – | – | – | – | – |
| COc1ccc(Cn2cnc3cc(C(=O)Nc4cccc5ccccc45)ccc32)c(OC)c1 | 4.31 | > 100 µM | – | > 100 µM | > 51.7 | 4.49 µM | > 66.7 | > 100 µM | > 100 µM | > 100 µM | 0.0894 | 0.0372 | 0.0275 | 0.122 | 0.104 | 0.0374 | 0.0531 | 0.0351 | 0.0654 | 0.0465 |
| C/C1=C\CC[C@@]2(C)O[C@@H]2C[C@@H]2[C@H](C/C(C)=C/CC1)OC(=O)C21CCN=N1 (stereo partly drawn) | > 100 | > 100 µM | > 100 | 75 µM | > 100 | > 100 µM | > 100 | 75 µM and > 100 µM | > 100 µM | > 100 µM | > 100 | – | > 100 | – | > 100 | > 100 | > 100 | > 100 | > 100 | > 100 |
